Measured values: the NIST ThermoML archive (doi:10.1021/je200788z)

What was measured:
[1] = 101.33 kPa, Liquid; for speed of sound: Sing-around technique in a fixed-path interferometer; for mass density: Vibrating tube method
[2] = refractive index (Na D-line) (dimensionless); settings: 101.33 kPa, Liquid, Standard Abbe refractometry

CC(C)COC(=O)CC[C@H]([NH3+])C(=O)OCC(C)C.CCCCCCCCCCCCOS(=O)(=O)[O-]
Settings	mass density, [1] [kg/m3]	refractive index, [2]	speed of sound, [1] [m/s]
323.15 K	1014.45	1.4472	1330.6
328.15 K	1010.78	1.4453	1314.4
333.15 K	1007.13	1.4432	1299.9
338.15 K	1003.54	1.4414	1284.2
343.15 K	1000	1.4393	1270.5

CC(C)OC(=O)CC[C@H]([NH3+])C(=O)OC(C)C.CCCCCCCCCCCCOS(=O)(=O)[O-]
Settings	mass density, [1] [kg/m3]	refractive index, [2]	speed of sound, [1] [m/s]
288.15 K	1057.9	1.4575	1439.7
293.15 K	1054.11	1.4559	1412.8
298.15 K	1050.31	1.4542	1389
303.15 K	1046.47	1.4528	1367.6
308.15 K	1042.57	1.4509	1347.9
313.15 K	1038.6	1.4493	1329.5
318.15 K	1034.81	1.4476	1312
323.15 K	1031.13	1.4461	1295.3
328.15 K	1027.46	1.4442	1279.2
333.15 K	1023.79	1.4429	1263.5
338.15 K	1021.2	1.441	1248.3
343.15 K	1016.44	1.4392	1233.6

CC(C)OC(=O)[C@@H]([NH3+])C(C)C.CCCCCCCCCCCCOS(=O)(=O)[O-]
Settings	mass density, [1] [kg/m3]	refractive index, [2]	speed of sound, [1] [m/s]
288.15 K	1033.35	1.4555	1438.4
293.15 K	1029.74	1.4541	1418.5
298.15 K	1026.11	1.4527	1400.5
303.15 K	1022.44	1.4514	1382.9
308.15 K	1018.71	1.4495	1365.9
313.15 K	1014.93	1.4483	1349.4
318.15 K	1011.36	1.4465	1333.2
323.15 K	1007.86	1.445	1317.4
328.15 K	1004.37	1.4434	1301.9
333.15 K	1000.88	1.4419	1286.6
338.15 K	997.39	1.4403	1270.4
343.15 K	993.9	1.4388	1254.9

CC(C)COC(=O)C[NH3+].CCCCCCCCCCCCOS(=O)(=O)[O-] [2-isobutoxy-2-oxoethan-1-aminium dodecyl sulfate]
Settings	mass density, [1] [kg/m3]	refractive index, [2]	speed of sound, [1] [m/s]
303.15 K	1013.62	1.4624	1372.1
308.15 K	1009.88	1.4592	1355.2
313.15 K	1006.14	1.456	1339
318.15 K	1002.38	1.4527	1323
323.15 K	998.71	1.4494	1307.6
328.15 K	995.15	1.4462	1292.5
333.15 K	991.89	1.443	1277.6
338.15 K	988.22	1.4397	1263
343.15 K	984.53	1.4365	1248.7

CC(C)OC(=O)C[NH3+].CCCCCCCCCCCCOS(=O)(=O)[O-] [2-isopropoxy-2-oxoethan-1-aminium dodecyl sulfate]
Settings	mass density, [1] [kg/m3]	refractive index, [2]	speed of sound, [1] [m/s]
303.15 K	1025.14	1.463	1373.4
308.15 K	1021.37	1.4603	1355.1
313.15 K	1017.68	1.4576	1337.6
318.15 K	1014.16	1.4549	1320.9
323.15 K	1010.65	1.4529	1305
328.15 K	1007.14	1.4497	1289.6
333.15 K	1003.63	1.4465	1274.6
338.15 K	1000.12	1.4441	1259.9
343.15 K	996.58	1.4414	1245.8

CC(C)COC(=O)[C@H](C)[NH3+].CCCCCCCCCCCCOS(=O)(=O)[O-] [(S)-1-isobutoxy-1-oxopropan-2-aminium dodecyl sulfate]
Settings	mass density, [1] [kg/m3]	refractive index, [2]	speed of sound, [1] [m/s]
288.15 K	1049.18	1.456	1447.6
293.15 K	1045.48	1.454	1423.6
298.15 K	1041.75	1.452	1401.9
303.15 K	1038.02	1.45	1381.6
308.15 K	1034.13	1.4479	1362.5
313.15 K	1030.13	1.4458	1343.9
318.15 K	1026.31	1.4437	1325.8
323.15 K	1022.6	1.4418	1308.1
328.15 K	1019.08	1.4397	1291.2
333.15 K	1015.6	1.4377	1275.8
338.15 K	1012.14	1.4354	1261
343.15 K	1008.75	1.4336	1246.6

CC(C)COC(=O)[C@@H]1CCC[NH2+]1.CCCCCCCCCCCCOS(=O)(=O)[O-] [(S)-2-(isobutoxycarbonyl)pyrrolidinium dodecyl sulfate]
Settings	mass density, [1] [kg/m3]	refractive index, [2]	speed of sound, [1] [m/s]
288.15 K	1043.22	1.4648	1460.2
293.15 K	1039.54	1.4623	1445.2
298.15 K	1035.88	1.4598	1429.2
303.15 K	1032.22	1.4574	1413
308.15 K	1028.57	1.4549	1397.2
313.15 K	1024.92	1.4524	1381.5
318.15 K	1021.27	1.45	1366.1
323.15 K	1017.72	1.4477	1349.1
328.15 K	1014.21	1.4452	1332.9
333.15 K	1010.85	1.4427	1316.8
338.15 K	1007.61	1.4401	1301.5
343.15 K	1004.98	1.4378	1286.2

CC(C)OC(=O)[C@@H]1CCC[NH2+]1.CCCCCCCCCCCCOS(=O)(=O)[O-] [(S)-2-(isopropoxycarbonyl)pyrrolidin-1-ium dodecyl sulfate]
Settings	mass density, [1] [kg/m3]	refractive index, [2]	speed of sound, [1] [m/s]
288.15 K	1054.33	1.4575	1455.5
293.15 K	1050.45	1.4559	1436.8
298.15 K	1046.8	1.4542	1419.2
303.15 K	1043.15	1.4525	1402.4
308.15 K	1039.52	1.451	1386.3
313.15 K	1035.89	1.4492	1370.7
318.15 K	1032.27	1.4478	1355.5
323.15 K	1028.73	1.4461	1340.6
328.15 K	1025.22	1.4446	1326
333.15 K	1021.7	1.4432	1311.7
338.15 K	1018.2	1.4414	1297.6
343.15 K	1014.69	1.4398	1284

CC(C)COC(=O)[C@@H](N)C(C)C.CCCCCCCCCCCCOS(=O)(=O)O [isobutyl L-valinate dodecyl sulfate]
Settings	refractive index, [2]	speed of sound, [1] [m/s]
288.15 K	1.4568	1434.4
293.15 K	1.4555	1421.3
298.15 K	1.4538	1408.6
303.15 K	1.4519	1394.6
308.15 K	1.4505	1379.9
313.15 K	1.4488	1365.5
318.15 K	1.4471	1350.9
323.15 K	1.4455	1335.5
328.15 K	1.4438	1318.1
333.15 K	1.4422	1299.9
338.15 K	1.4406	1275
343.15 K	1.439	1249.5
